Source: patent publication US7572616B2, “Alternative oxidase and uses thereof” (priority 2005, dated 2009)

Columns and labels:
[1] = test system: Drosophila mitochondria; assay: Oxygen consumption of isolated mitochondrial suspensions from flies; assay type: biochemical, Drosophila melanogaster; settings: mitochondria from AOX-expressing flies
[2] = test system: Flp-In™ T-REx™-293 cells; assay: Succinate oxidation by digitonin permeabilized cells, Clark oxygen electrode; assay type: cell-based, human; settings: AOX-expressing cells, 100 μM propyl gallate added after cyanide
[3] = test system: Flp-In™ T-REx™-293 cells; assay type: cell-based, human

Question: With `CCCOC(=O)c1cc(O)c(O)c(O)c1` [n-propyl gallate] as the compound, how does the “sensitivity of residual cyanide-insensitive respiratory activity to AOX inhibitors” value ([1]; cyanide present) read?
Answer: sensitive

Question: And the “effect of AOX inhibitors on respiration when cyanide absent” value ([1]; no cyanide)?
Answer: only a small effect

Question: And the “inhibition of cyanide-resistant succinate oxidation” value [2]?
Answer: fully inhibited

Question: What about the “inhibition of residual cyanide-insensitive respiration” value [3] of the same compound?
Answer: completely inhibited

Question: And the “inhibition of respiration in the presence of cyanide” value [3]?
Answer: almost completely inhibited
